From US20140193827A1 (TEVA PHARMACEUTICAL INDUSTRIES, LTD., priority 2013, published 2014)

Test system: GA-primed murine splenocytes
Assay: Tolerance method for assessing process variability

## glatiramer acetate [GA]
Probe ILMN_1228937
  AVG expression CYHR1: 8.14
Probe ILMN_1229193
  AVG expression MSN: 9.736
Probe ILMN_1229197
  AVG expression OTTMUSG00000016644: 7.618
Probe ILMN_1229746
  AVG expression ECM1: 6.806
Probe ILMN_1229804
  AVG expression LTA: 8.009
Probe ILMN_1229827
  AVG expression ST7: 7.737
Probe ILMN_1229840
  AVG expression FCRLA: 9.907
Probe ILMN_1230045
  AVG expression 4933437K13RIK: 9.824
Probe ILMN_1230137
  AVG expression TPI1: 12.52
Probe ILMN_1230143
  AVG expression BATF2: 6.446
Probe ILMN_1230546
  AVG expression CLIC4: 11.15
Probe ILMN_1230605
  AVG expression GM336: 7.6587
Probe ILMN_1231204
  AVG expression LOC270152: 8.329
Probe ILMN_1231447
  AVG expression TPI1: 7.938
Probe ILMN_1231814
  AVG expression CCL5: 8.662
Probe ILMN_1232235
  AVG expression THADA: 8.652
Probe ILMN_1232621
  AVG expression ANK: 7.123
Probe ILMN_1232668
  AVG expression MAD: 7.987
Probe ILMN_1233293
  AVG expression GBP1: 11.66
Probe ILMN_1233402
  AVG expression LOC100045981: 9.335
Probe ILMN_1233474
  AVG expression IL2RA: 8.134
Probe ILMN_1233501
  AVG expression C530027B15R1K: 8.684
Probe ILMN_1233589
  AVG expression CD27: 8.296
Probe ILMN_1233987
  AVG expression 1110014O20RIK: 9.906
Probe ILMN_1233999
  AVG expression PPP3CC: 8.724
Probe ILMN_1234020
  AVG expression SCL0002007.1_97: 8.904
Probe ILMN_1234054
  AVG expression TMED8: 8.518
Probe ILMN_1234539
  AVG expression IRGM1: 11.44
Probe ILMN_1234698
  AVG expression TSPAN2: 7.426
Probe ILMN_1234706
  AVG expression IGHA_J00475$V00785_IG_HEAVY—CONSTANT_ALPHA_135: 7.221
Probe ILMN_1234746
  AVG expression AI790298: 6.873
Probe ILMN_1234973
  AVG expression 4630004K05RIK: 6.972
Probe ILMN_1235499
  AVG expression PROS1: 8.935
Probe ILMN_1235926
  AVG expression A630072M18RIK: 8.781
Probe ILMN_1236111
  AVG expression FCRLA: 11.88
Probe ILMN_1236245
  AVG expression RAB11FIP4: 6.42
Probe ILMN_1236354
  AVG expression E130302P19RIK: 7.244
Probe ILMN_1236507
  AVG expression 5830496L11RIK: 9.309
Probe ILMN_1236588
  AVG expression CAR1: 9.793
Probe ILMN_1237074
  AVG expression SLC25A19: 11.68
Probe ILMN_1237338
  AVG expression DDX25: 6.532
Probe ILMN_1237567
  AVG expression IL7R: 6.244
Probe ILMN_1237695
  AVG expression PFKP: 10.66
Probe ILMN_1237871
  AVG expression AMPD1: 6.446
Probe ILMN_1238547
  AVG expression AREG: 6.514
Probe ILMN_1238725
  AVG expression C130086J11RIK: 7.188
Probe ILMN_1239055
  AVG expression KDH: 7.064
Probe ILMN_1239346
  AVG expression KLRE1: 6.805
Probe ILMN_1239397
  AVG expression LOC100047934: 10.17
Probe ILMN_1239411
  AVG expression 6430510M02RIK: 8.536
Probe ILMN_1239472
  AVG expression CEACAM2: 6.786
Probe ILMN_1239632
  AVG expression NG23: 8.463
Probe ILMN_1239729
  AVG expression KIF1B: 7.517
Probe ILMN_1239797
  AVG expression 6030400N17RIK: 6.341
Probe ILMN_1239878
  AVG expression PRSS34: 6.278
Probe ILMN_1241171
  AVG expression ANXA3: 8.239
Probe ILMN_1241610
  AVG expression ADRB2: 8.974
Probe ILMN_1242308
  AVG expression TCF7: 8.261
Probe ILMN_1242622
  AVG expression CREM: 8.248
Probe ILMN_1242769
  AVG expression AKAP8L: 9.971
Probe ILMN_1242794
  AVG expression D630014A15RIK: 8.379
Probe ILMN_1243150
  AVG expression A130010J15RIK: 8.875
Probe ILMN_1243249
  AVG expression 2810410A03RIK: 10.13
Probe ILMN_1243621
  AVG expression A130026C10RIK: 9.03
Probe ILMN_1244343
  AVG expression B230369L08RIK: 9.9
Probe ILMN_1244516
  AVG expression RASGRP2: 6.8
Probe ILMN_1244853
  AVG expression LOC100044948: 11.36
Probe ILMN_1244866
  AVG expression GBP5: 9.012
Probe ILMN_1244874
  AVG expression SYNGR2: 10.87
Probe ILMN_1244891
  AVG expression CST7: 7.709
Probe ILMN_1245300
  AVG expression F730045P10RIK: 7.742
Probe ILMN_1245731
  AVG expression HHEX: 9.543
Probe ILMN_1245754
  AVG expression CD84: 6.93
Probe ILMN_1246543
  AVG expression SIAT7C: 8.379
Probe ILMN_1246895
  AVG expression C78339: 9.914
Probe ILMN_1247198
  AVG expression BC004728: 10.36
Probe ILMN_1247199
  AVG expression LOC100046770: 8.329
Probe ILMN_1247309
  AVG expression IL3: 9.384
Probe ILMN_1247893
  AVG expression CGEF2-PENDING: 8.11
Probe ILMN_1248028
  AVG expression EMP3: 10.05
Probe ILMN_1248413
  AVG expression FASL: 6.78
Probe ILMN_1248651
  AVG expression C330023M02RIK: 8.865
Probe ILMN_1248714
  AVG expression CD55: 8.2139
Probe ILMN_1248843
  AVG expression GATA3: 8.224
Probe ILMN_1249014
  AVG expression TBX6: 6.934
Probe ILMN_1249021
  AVG expression BCL2: 8.748
Probe ILMN_1249030
  AVG expression MPO: 8.41
Probe ILMN_1249366
  AVG expression LOC100046608: 9.365
Probe ILMN_1249740
  AVG expression TSSC6: 6.912
Probe ILMN_1249824
  AVG expression IGF1R: 6.78
Probe ILMN_1249975
  AVG expression IGHG: 8.895
Probe ILMN_1250410
  AVG expression EIF2AK2: 10.06
Probe ILMN_1251984
  AVG expression C730026J16: 9.459
Probe ILMN_1252076
  AVG expression LYZ2: 8.645
Probe ILMN_1252295
  AVG expression LOC100038894: 6.989
Probe ILMN_1252496
  AVG expression WDR9: 7.625
Probe ILMN_1253008
  AVG expression ACAT2: 9.341
Probe ILMN_1253182
  AVG expression HS3ST1: 8.805
Probe ILMN_1253354
  AVG expression DAPP1: 8.474
Probe ILMN_1254157
  AVG expression WARS: 10.36
Probe ILMN_1254218
  AVG expression NISCH: 10.29
Probe ILMN_1254314
  AVG expression 4931429I11RIK: 6.757
Probe ILMN_1254405
  AVG expression LMNA: 8.835
Probe ILMN_1254577
  AVG expression AI607873: 7.533
Probe ILMN_1254634
  AVG expression ACPL2: 7.573
Probe ILMN_1254669
  AVG expression SYPL: 10.85
Probe ILMN_1254685
  AVG expression EG240327: 7.154
Probe ILMN_1255510
  AVG expression LMNA: 9.57
Probe ILMN_1255743
  AVG expression IL6RA: 7.478
Probe ILMN_1255860
  AVG expression KLRD1: 8.506
Probe ILMN_1256219
  AVG expression LOC100047261: 11.14
Probe ILMN_1256356
  AVG expression PML: 10.68
Probe ILMN_1256430
  AVG expression MCOLN3: 6.748
Probe ILMN_1256644
  AVG expression SLC6A12: 6.942
Probe ILMN_1257107
  AVG expression LOC100043821: 10.78
Probe ILMN_1257444
  AVG expression SLC37A1: 7.908
Probe ILMN_1257771
  AVG expression LOC638301: 9.6
Probe ILMN_1257803
  AVG expression A130095K04RIK: 6.146
Probe ILMN_1258197
  AVG expression D230004N01RIK: 8.362
Probe ILMN_1258357
  AVG expression DOK3: 11.45
Probe ILMN_1258364
  AVG expression 5430434G16RIK: 8.61
Probe ILMN_1258587
  AVG expression LOC100044376: 9.335
Probe ILMN_1258864
  AVG expression BC106179: 7.749
Probe ILMN_1258965
  AVG expression TMEM66: 10.41
Probe ILMN_1259075
  AVG expression NME7: 8.301
Probe ILMN_1259174
  AVG expression SCIN: 9.64
Probe ILMN_1260046
  AVG expression SFT2D2: 10.2783
Probe ILMN_2054914
  AVG expression USP18: 8.225
Probe ILMN_2163572
  AVG expression ADCY7: 8.002
Probe ILMN_2419490
  AVG expression TNFRSF18: 11.07
Probe ILMN_2419494
  AVG expression TNFR5F18: 10.8
Probe ILMN_2421220
  AVG expression BRWD1: 7.59
Probe ILMN_2426853
  AVG expression UBD: 8.138
Probe ILMN_2431237
  AVG expression XBP1: 12.27
Probe ILMN_2433990
  AVG expression LOC100048346: 9.203
Probe ILMN_2443164
  AVG expression SCL0002069.1_48: 8.113
Probe ILMN_2444984
  AVG expression MACF1: 7.707
Probe ILMN_2445789
  AVG expression TNFRSF9: 8.963
Probe ILMN_2446559
  AVG expression TNFRSF4: 10.65
Probe ILMN_2447712
  AVG expression IBRDC3: 7.79
Probe ILMN_2449150
  AVG expression MAP4K2: 9.206
Probe ILMN_2450767
  AVG expression DUSP4: 8.696
Probe ILMN_2454823
  AVG expression 6720418B01RIK: 7.844
Probe ILMN_2457437
  AVG expression A830080H07RIK: 9.842
Probe ILMN_2457571
  AVG expression MAML2: 8.504
Probe ILMN_2458765
  AVG expression AHNAK: 8.464
Probe ILMN_2459899
  AVG expression ADAMTSL4: 8.039
Probe ILMN_2460094
  AVG expression WNT10A: 7.099
Probe ILMN_2467190
  AVG expression BAMBI-PS1: 7.445
Probe ILMN_2473692
  AVG expression 1110059G02RIK: 6.85
Probe ILMN_2474052
  AVG expression 5830411I20: 10.05
Probe ILMN_2476452
  AVG expression CPM: 6.679
Probe ILMN_2481117
  AVG expression 1700052O22R1K: 9.816
Probe ILMN_2483811
  AVG expression 2210408F11RIK: 10.42
Probe ILMN_2488997
  AVG expression 2010005O13RIK: 9.797
Probe ILMN_2490076
  AVG expression PKIB: 7.096
Probe ILMN_2491741
  AVG expression TRIO: 6.611
Probe ILMN_2492264
  AVG expression WISP1: 6.711
Probe ILMN_2492284
  AVG expression AA536717: 6.484
Probe ILMN_2493030
  AVG expression 2310043N10RIK: 9.383
Probe ILMN_2493826
  AVG expression UGT1A10: 6.49
Probe ILMN_2500370
  AVG expression 9430080K19RIK: 10.17
Probe ILMN_2504447
  AVG expression EG330070: 6.499
Probe ILMN_2506039
  AVG expression A130090K04RIK: 8.137
Probe ILMN_2507761
  AVG expression 7530404M11RIK: 7.426
Probe ILMN_2510694
  AVG expression NME7: 7.434
Probe ILMN_2513451
  AVG expression 1110046J11RIK: 10.16
Probe ILMN_2517611
  AVG expression 7530408C15RIK: 7.035
Probe ILMN_2518483
  AVG expression PLA2G12A: 6.955
Probe ILMN_2520264
  AVG expression 2010016118RIK: 7.54
Probe ILMN_2522460
  AVG expression 3010031K01RIK: 9.234
Probe ILMN_2522750
  AVG expression TRIO: 8.588
Probe ILMN_2524763
  AVG expression 4930597A21RIK: 7.674
Probe ILMN_2524865
  AVG expression CHI3L4: 7.454
Probe ILMN_2531737
  AVG expression LOC240672: 8.095
